Data reported in the NIST ThermoML archive (doi:10.1021/acs.jced.7b00939).
“And” between values parts separate entries of the source, which are not always exact repeats. Identical values can stand only once.

Settings: Liquid, Vibrating tube method

CCCCC(CC)COC(=O)c1ccc(C(=O)OCC(CC)CCCC)c(C(=O)OCC(CC)CCCC)c1 (stereo unspecified) [tris(2-ethylhexyl) trimellitate]
Settings | mass density
328.15 K, 5110 kPa | 965.697 kg/m3
328.15 K, 10110 kPa | 968.884 kg/m3
328.15 K, 20120 kPa | 974.939 kg/m3
328.15 K, 30110 kPa | 980.701 kg/m3
333.15 K, 100 kPa | 959.014 kg/m3 [middle of 4 runs]
353.15 K, 100 kPa | 944.616 kg/m3 [middle of 4 runs]
363.15 K, 100 kPa | 937.285 kg/m3 and 937.369 kg/m3
363.15 K, 5110 kPa | 941.043 kg/m3
363.15 K, 10110 kPa | 944.715 kg/m3
363.15 K, 20120 kPa | 951.677 kg/m3
363.15 K, 30130 kPa | 958.176 kg/m3
363.15 K, 40130 kPa | 964.291 kg/m3
363.15 K, 50140 kPa | 969.983 kg/m3
373.15 K, 100 kPa | 930.229 kg/m3 and 930.252 kg/m3
383.15 K, 100 kPa | 923.009 kg/m3 and 923.041 kg/m3 and 923.028 kg/m3
388.15 K, 100 kPa | 919.579 kg/m3
388.15 K, 2640 kPa | 921.672 kg/m3
388.15 K, 5170 kPa | 923.804 kg/m3
388.15 K, 7730 kPa | 925.892 kg/m3
388.15 K, 10170 kPa | 927.866 kg/m3
388.15 K, 15260 kPa | 931.875 kg/m3
388.15 K, 20280 kPa | 935.659 kg/m3
388.15 K, 30390 kPa | 942.915 kg/m3
388.15 K, 40500 kPa | 949.605 kg/m3
388.15 K, 50560 kPa | 955.87 kg/m3
388.15 K, 68700 kPa | 966.125 kg/m3
393.15 K, 100 kPa | 915.76 kg/m3 and 915.768 kg/m3
403.15 K, 100 kPa | 908.475 kg/m3 and 908.487 kg/m3 and 908.679 kg/m3
403.15 K, 2640 kPa | 910.921 kg/m3
403.15 K, 5110 kPa | 912.879 kg/m3
403.15 K, 5170 kPa | 913.199 kg/m3
403.15 K, 7690 kPa | 915.392 kg/m3
403.15 K, 10110 kPa | 917.229 kg/m3
403.15 K, 10220 kPa | 917.585 kg/m3
403.15 K, 15270 kPa | 921.805 kg/m3
403.15 K, 20110 kPa | 925.405 kg/m3
403.15 K, 20320 kPa | 925.852 kg/m3
403.15 K, 30120 kPa | 932.929 kg/m3
403.15 K, 30380 kPa | 933.471 kg/m3
403.15 K, 40120 kPa | 939.962 kg/m3
403.15 K, 40430 kPa | 940.482 kg/m3
403.15 K, 50130 kPa | 946.45 kg/m3
403.15 K, 50540 kPa | 947.085 kg/m3
403.15 K, 68140 kPa | 957.148 kg/m3
403.15 K, 68470 kPa | 957.846 kg/m3
413.15 K, 100 kPa | 901.142 kg/m3 and 901.152 kg/m3
423.15 K, 100 kPa | 893.777 kg/m3 and 893.78 kg/m3
423.15 K, 2590 kPa | 896.162 kg/m3
423.15 K, 5100 kPa | 898.654 kg/m3
423.15 K, 7590 kPa | 901.053 kg/m3
423.15 K, 10100 kPa | 903.407 kg/m3
423.15 K, 20110 kPa | 912.286 kg/m3
423.15 K, 30120 kPa | 920.442 kg/m3
423.15 K, 40120 kPa | 927.911 kg/m3
423.15 K, 50120 kPa | 934.915 kg/m3
423.15 K, 68140 kPa | 946.287 kg/m3
